Reference: article PMC7370187, “Screening of an Epigenetic Drug Library Identifies 4-((hydroxyamino)carbonyl)-N-(2-hydroxyethyl)-N-Phenyl-Benzeneacetamide that Reduces Melanin Synthesis by Inhibiting Tyrosinase Activity Independently of Epigenetic Mechanisms” (International Journal of Molecular Sciences, 2020)
Entries after “also recorded” stand apart in the source; their conditions may differ.

Key:
B16-F10 cells = assay: Melanin content assay (extracellular and intracellular); format: cell-based, murine; settings: K8 1–10 µM, 100 nM α-MSH
Description: The intracellular melanin retained in cells and extracellular melanin secreted from cells were separately determined. B16-F10 cells were plated in 6-well plates (1.2 × 10^4 cells per well), cultured for 24 h, treated with a test drug at various concentrations for 60 min, and stimulated with 100 nM α-MSH for 72 h. The conditioned medium was evaluated to determine the extracellular melanin content. Adherent cells were extracted with 10% dimethyl sulfoxide solution containing 1.0 M sodium hydroxide at 60 °C for 60 min, and melanin content in the extract was estimated by measuring the absorbance at 400 nm and normalized to the total protein content of the cells.

[1] = tested on: tyrosinase (TYR) activity in B16-F10 cells; assay: Cellular TYR activity assay (lysates of treated cells); format: cell-based, murine; settings: 100 nM α-MSH, 24 h, cell lysates
Description: After B16-F10 cells were treated with drug and/or α-MSH, the TYR activity of cell extracts was determined by an indirect spectrophotometric method to monitor dopachrome formation with L-tyrosine plus L-DOPA as the substrates. Total cellular protein was extracted from the treated cells using a lysis buffer of 10 mM Tris-HCl buffer (pH 7.4) containing 120 mM NaCl, 25 mM KCl, 2.0 mM EDTA, 1.0 mM EGTA, 0.5% Triton X-100, and a protease inhibitor cocktail (Roche, Mannheim, Germany) at 4 °C, followed by centrifugation at 13,000× g for 15 min. The TYR activity assay mixture (200 μL) consisting of 100 mM sodium phosphate buffer (pH 6.8), 1.0 mM L-tyrosine, and 42 μΜ L-DOPA was incubated with 40 μg cellular protein extract at 37 °C, and changes in absorbance at 475 nm over time were measured using a Spectrostar Nano microplate reader.

[2] = tested on: TYR, TYRP1, DCT and MITF mRNA in B16-F10 cells; assay: qRT-PCR analysis of melanogenic gene mRNA; format: cell-based, murine; settings: 100 nM α-MSH, 12 h, normalized to GAPDH
Description: After B16-F10 cells were treated with drug and/or α-MSH, cellular RNA was extracted using an RNeasy kit (Qiagen, Valencia, CA, USA) and the complementary DNA (cDNA) was synthesized by reverse transcription using a High-Capacity cDNA Archive Kit (Applied Biosystems, Foster City, CA, USA). qRT-PCR was conducted using a StepOnePlus™ Real-Time PCR System (Applied Biosystems). The reaction mixture (20 μL) comprised SYBR® Green PCR Master Mix (Applied Biosystems), 60 ng cDNA, and 2 pmol gene-specific primer sets (Macrogen, Seoul, Korea).
The reaction protocol was as follows: initial incubation at 50 °C for 2 min; DNA polymerase activation at 95 °C for 15 min; and annealing and extension at 60 °C for 1 min. In each PCR run, the melting curve was checked to confirm the homogeneity of the PCR product. The mRNA expression levels of the gene of interest were determined using the comparative Ct method, and normalized to the internal reference GAPDH [59]. In this method, Ct is defined as the number of PCR cycles required for the signal to exceed the threshold. Fold changes in the test group compared to the control group were calculated as 2^−ΔΔCt, where ΔΔCt = ΔCt(test) − ΔCt(control) = [Ct(gene, test) − Ct(reference, test)] − [Ct(gene, control) − Ct(reference, control)].

human TYR = biological target: T1, human TYR (Homo sapiens, UniProt P14679); assay: In vitro TYR catalytic activity assay, lysate of HEK293-TYR cells; format: biochemical
T1 construct: expressed in transfected cells; Triton X-100 lysate supernatant
T1 sequence (P14679 19-529): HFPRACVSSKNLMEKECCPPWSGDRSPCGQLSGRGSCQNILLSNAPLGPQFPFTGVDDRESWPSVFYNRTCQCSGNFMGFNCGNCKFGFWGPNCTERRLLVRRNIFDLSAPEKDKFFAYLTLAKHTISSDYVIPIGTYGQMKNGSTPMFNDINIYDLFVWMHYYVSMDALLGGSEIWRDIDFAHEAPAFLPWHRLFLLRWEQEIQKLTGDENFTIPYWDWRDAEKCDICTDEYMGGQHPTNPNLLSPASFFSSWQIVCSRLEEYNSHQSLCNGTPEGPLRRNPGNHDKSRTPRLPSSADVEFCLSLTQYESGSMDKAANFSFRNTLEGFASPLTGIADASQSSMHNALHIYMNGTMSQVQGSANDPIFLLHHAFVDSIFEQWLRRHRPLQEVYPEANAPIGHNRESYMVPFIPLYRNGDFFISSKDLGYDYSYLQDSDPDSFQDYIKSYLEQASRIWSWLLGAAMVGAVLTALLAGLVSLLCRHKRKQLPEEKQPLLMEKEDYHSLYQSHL
Description: To examine the direct effect of a drug on the catalytic activity of TYR, in vitro experiments were undertaken. Lysate of B16F10 cells stimulated with α-MSH for 24 h was used as a murine TYR preparation. Human TYR preparation was the lysate of human embryonic kidney 293 cells constitutively expressing human TYR (HEK293-TYR). […] The TYR activity assay mixture (200 μL) consisted of 100 mM sodium phosphate buffer (pH 6.8), TYR preparation (40 μg protein), a drug at various concentrations, 1.0 mM L-tyrosine, and 42 μΜ L-DOPA. For enzyme kinetic study, the concentrations of L-tyrosine plus L-DOPA were varied while their relative ratio was kept the same as the standard assay condition. […] The reactions were also performed in the absence of a TYR preparation to correct for the effects of non-enzymatic reactions. Enzyme activity was calculated as follows: activity (% control) = (C−D)/(A−B) × 100, where A and B are the absorbance changes of the control group with and without enzyme, respectively, while C and D are the absorbance changes of the test group with and without enzyme, respectively.

Structure (SMILES): O=C(NO)c1ccc(CC(=O)N(CCO)c2ccccc2)cc1 [K8, 4-((hydroxyamino)carbonyl)-N-(2-hydroxyethyl)-N-phenyl-benzeneacetamide]
- intracellular melanin content, normalized for total cellular protein (B16-F10 cells; cell extracts): suppressed by K8 in a dose-dependent manner
- extracellular melanin content, normalized for total cellular protein (B16-F10 cells; conditioned medium): suppressed by K8 in a dose-dependent manner
- cellular TYR activity [1]: attenuated; also recorded: only partially lowered by 10 µM K8
- DCT mRNA level [2]: not significantly affected
- MITF mRNA expression [2]: not significantly affected
- TYR mRNA level [2]: not significantly affected
- TYRP1 mRNA level [2]: not significantly affected
- IC50 (human TYR; HEK293-TYR cell-free extract, L-tyrosine plus L-DOPA): 1.1 µM
- human TYR inhibitory effect (human TYR; each drug at 1.0 μM, library screening): potent TYR inhibitory effects
